The subject of one data set is A-549 cells. In words: Antiproliferative assay, A-549. In kind it is cell-based. To be noted: Homo sapiens, A549; A-549 lung cancer cell line; read-out: Antiproliferative activity IC50 ± SEM, A-549. The protocol:
(§1) 4.2.2. Assay for antiproliferative effect
(§2) To explore the antiproliferative potential of compounds propidium iodide fluorescence assay was performed using different cell lines such as Panc-1 (pancreas cancer cell line), MCF-7 (breast cancer cell line), HT-29 (colon cancer cell line) and A-549 (epithelial cancer cell line), respectively. To calculate the total nuclear DNA, a fluorescent dye (propidium iodide, PI) is used which can attach to the DNA, thus offering a quick and precise technique. PI cannot pass through the cell membrane and its signal intensity can be considered as directly proportional to quantity of cellular DNA. Cells whose cell membranes are damaged or have changed permeability are counted as dead ones. The assay was performed by seeding the cells of different cell lines at a density of 3000-7500 cells/well (in200μl medium) in culture plates followed by incubation for 24h at 37 °C in humidified 5%CO2/95% air atmospheric conditions. The medium was removed; the compounds were added to the plates at 10 μM concentrations (in 0.1% DMSO) in triplicates, followed by incubation for 48h. DMSO (0.1%) was used as control. After incubation, medium was removed followed by the addition of PI (25 μl, 50μg/mL in water/medium) to each well of the plates. At - 80 °C, the plates were allowed to freeze for 24 h, followed by thawing at 25 °C. A fluorometer (Polar-Star BMG Tech) was used to record the readings at excitation and emission wavelengths of 530 and 620 nm for each well. The percentage cytotoxicity of compounds was calculated using […]
(§3) Where ATC= Absorbance of treated cells and AC= Absorbance of control. Erlotinib was used as positive control in the assay.

In a further data set the test system is MCF-7 cells. The data set is described as follows: Antiproliferative assay, MCF-7. It is filed as cell-based. The note with it: Homo sapiens, MCF7; MCF-7 breast cancer cell line; read-out: Antiproliferative activity IC50 ± SEM, MCF-7. On the procedure:
as §1, §2, §3

Data set [1] is described as follows: Cell viability assay (MTT) on normal mammary epithelial cells. The note with it: human, MCF-10A normal mammary gland epithelial cells, MCF-10A normal cells, 4 days incubation. In kind it is cell-based, human. The protocol:
This test investigates the effects of the new compounds 3–16 on normal cell lines to determine their safety. The normal human mammary gland epithelial (MCF-10 A) cell line was used to test the viability of the tested compounds. After 4 days of incubation on MCF-10 A cells within 50 µM of each investigated compound, cell viability was determined using the MTT assay ([Gomaa et al., 2020]; [Marzouk et al., 2020]).
The normal human mammary gland epithelial (MCF-10A) cell line was used to test the viability of the tested compounds. After 4 days of incubation on MCF-10A cells within 50 µM of each investigated compound, cell viability was determined using the MTT assay ([Gomaa et al., 2020]; [Marzouk et al., 2020]). Refer to Supplementary Appendix SA1 (supp. File) for more details.
4.2. Biological evaluation
4.2.1 Cell Viability assay (MTT assay)
MTT assay was performed to investigate the effect of the synthesized compounds on mammary epithelial cells (MCF-10A). The cells were propagated in medium consisting of Ham's F-12 medium/ Dulbecco's modified Eagle's medium (DMEM) (1:1) supplemented with 10% foetal calf serum, 2 mM glutamine, insulin (10 μg/mL), hydrocortisone (500 ng/mL) and epidermal growth factor (20 ng/mL). Trypsin ethylenediamine tetra acetic acid (EDTA) was used to passage the cells after every 2-3 days. 96-well flat-bottomed cell culture plates were used to seed the cells at a density of 10^4 cells mL-1. The medium was aspirated from all the wells of culture plates after 24 h followed by the addition of synthesized compounds (in 200 μL medium to yield a final concentration of 0.1% (v/v) dimethyl sulfoxide) into individual wells of the plates. Four wells were designated to a single compound. The plates were allowed to incubate at 37°C for 96 h. Afterwards, the medium was aspirated and 3-[4,5-dimethylthiazol-2-yl]-2,5-diphenyltetrazolium bromide (MTT) (0.4 mg/mL) in medium was added to each well and subsequently incubated for 3 h. The medium was aspirated and 150 μL dimethyl sulfoxide (DMSO) was added to each well. The plates were vortexed followed by the measurement of absorbance at 540 nm on a microplate reader. The results were presented as inhibition (%) of proliferation in contrast to controls comprising 0.1%

Another data set has as its target T1, iNOS (Homo sapiens, UniProt P35228).
T1 construct: purchased Enzo Life Sciences, Inc. (New York, USA)
The data set is described as follows: NOS inhibition assay (L-citrulline, fluorometric detection), iNOS. In kind it is biochemical. To be noted: for inhibition at 1 µM: compound at 1 µM; for eNOS/iNOS selectivity: ratio of eNOS IC50 to iNOS IC50. The protocol:
The investigated compounds were tested at 1 µM against the iNOS and 10 µM against the eNOS to determine their isoform selectivity. Because of its critical role in cardiovasculature, inhibiting the constitutive enzyme eNOS should be avoided.
Refer to Supplementary Appendix SA1 for more details.
4.2.4. NOS inhibition assay
Recombinant human iNOS was purchased from Enzo Life Sciences, Inc. (New York, USA).
Recombinant bovine eNOS was purchased from Cayman Chemical (Ann Arbor, USA). To measure iNOS activity, 10 μL of enzyme stock solution were added to 80 μL of 2-[4-(2-hydroxyethyl) piperazin-1-yl]ethanesulfonic acid (HEPES) buffer pH = 7.4, 100 mM, containing 0.1 mM CaCl2, 1 mM D,L-dithiothreitol (DTT), 0.5 mg/mL BSA, 10 μM flavin mononucleotide (FMN), 10 μM flavin adenine dinucleotide (FAD), 30 μM tetrahydrobiopterin (BH4), 10 μg/mL calmodulin (CaM), 10 μM L-Arg. For the eNOS activity evaluation, 25 μL of the enzyme stock solution were added to 65 μL of HEPES buffer containing 2 mM CaCl2 and the same cofactors […]
μM) were added to the enzyme assay solution, followed by pre -incubation of 15 min at 37 ◦C.
Each reaction was initiated by the addition of 10 μL of NADPH 7.5 mM, carried out at 37 ◦C for 30 min, and stopped by adding 500 μL of ice -cold CH3CN. The mixture was brought to dryness under vacuum and eventually stored at – 20 ◦C, before the HPLC analysis. […]

As usually defined, the IC50 is the point on the concentration scale where inhibition reaches its midpoint. One may read the viability as a read-out of living cells in per cent, often relative to untreated cells. By inhibition is commonly meant how much of the control response was suppressed. Regarding `CCc1c2cc(Cl)ccc2n2c(C)c(C(=O)OCc3ccccc3)[nH]c(=O)c12` [Compound 5, benzyl 8-chloro-10-ethyl-4-methyl-1-oxo-1,2-dihydropyrazino [1,2-a]indole-3-carboxylate], the IC50 was 31 ± 3 nM in the data set with A-549 cells and 34 ± 3 nM in the data set on MCF-7 cells. The viability at 4 days, 50 µM in data set [1] came out at 90%. This compound also yielded an inhibition at 1 µM on iNOS of 62 ± 2%.
On the same counts, the results for `CCc1c2cc(Cl)ccc2n2c(C)c(C(=O)NCc3ccccc3)[nH]c(=O)c12` [Compound 7, N-benzyl-8-chloro-10-ethyl-4-methyl-1-oxo-1,2-dihydropyrazino [1,2-a]indole-3-carboxamide] are 28 ± 2 nM, 30 ± 3 nM, 88% and 73 ± 2%.
Consider `CCc1c2cc(Cl)ccc2n2cc(Cc3ccccc3)n(C)c(=O)c12` [Compound 12, 3-Benzyl-8-chloro-10-ethyl-2-methylpyrazino[1,2-a]indol-1(2H)-one], for which, in the data set on A-549 cells, the IC50 was 23 ± 2 nM. The IC50 in the data set on MCF-7 cells came to 25 ± 2 nM. In addition, in data set [1], the viability at 4 days, 50 µM is 89%. Also, on iNOS, it took 75 ± 2 nM to reach half-maximal inhibition (IC50), the inhibition at 1 µM stood at 87 ± 3% and the eNOS/iNOS selectivity is reported as above 670.
As to `CCc1c2cc(Cl)ccc2n2cc(-c3ccccc3)[nH]c(=O)c12` [Compound 16, 8-Chloro-10-ethyl-3-phenylpyrazino [1,2-a]indol-1(2H)-one], the IC50 in the data set with A-549 cells is 25 ± 2 nM. Besides, the IC50 in the data set with MCF-7 cells is 28 ± 2 nM. The compound further displayed a viability at 4 days, 50 µM in data set [1] of 91%. For the same compound, on iNOS, the half-inhibitory concentration (IC50) came to 98 ± 3 nM, the inhibition at 1 µM stood at 81 ± 3% and the eNOS/iNOS selectivity was above 510.

The values are drawn from publication PMC11414412, “Design and synthesis new indole-based aromatase/iNOS inhibitors with apoptotic antiproliferative activity” (Frontiers in Chemistry, 2024).
